Assay results reported in article PMC7265429, “Characterization of a new small-molecule inhibitor of HDAC6 in glioblastoma” (Cell Death & Disease, 2020).

Test system: GNS166 cells
Experiment: Microarray whole-transcriptome gene expression analysis
Type: cell-based, human
Details: 5 µM SAHA vs DMSO
Experimental: Whole-transcriptome analysis was performed from 300 ng of RNA using HuGene-2_0-st-v1 expression array (Affymetrix), which covers 48,226 transcripts. Raw data were first checked for quality purposes through the Affymetrix® Expression Console™ Software v1.4.1 and TAC software v4.0. Then, data were normalized using the Robust Multi-array Average (RMA) and analyzed by Limma tool. Probesets with FDR-corrected p-values smaller than 0.05 were selected. Functional enrichment on Gene Ontology (GO) biological processes was performed on a smaller subset of the differentially expressed genes (corrected p-value < 0.001) by means of Broad Institute GSEA. […] The data that support this study have been deposited in NCBI´s Gene Expression Omnibus and are accessible through GEO series accession number GSE143887.

SMILES: O=C(CCCCCCC(=O)Nc1ccccc1)NO [SAHA, Suberoylanilide hydroxamic acid]
- logFC, unannotated transcript (transcript 23067838): 2.48
- logFC, unannotated transcript (transcript 23070274): 1.496
- logFC, unannotated transcript (transcript 23074046): 2.262
- logFC, unannotated transcript (transcript 23076255): 1.316
- logFC, unannotated transcript (transcript 23076621): 1.363
- logFC CLCN4 (transcript TC0X00006593.hg.1): 1.5774
- logFC GRPR (transcript TC0X00006686.hg.1): 2.105
- logFC CNKSR2 (transcript TC0X00006758.hg.1): 1.439
- logFC TCEAL2 (transcript TC0X00007965.hg.1): 1.805
- logFC CXorf57 (transcript TC0X00008052.hg.1): 2.567
- logFC RNF128 (transcript TC0X00008054.hg.1): 2.588
- logFC TBC1D8B (transcript TC0X00008055.hg.1): 1.963
- logFC BCORL1 (transcript TC0X00008394.hg.1): 1.89
- logFC SPANXB1 (transcript TC0X00008599.hg.1): 3.183
- logFC SPANXA2 (transcript TC0X00008608.hg.1): 1.528
- logFC GABRQ (transcript TC0X00008747.hg.1): 2.318
- logFC SPRY3 (transcript TC0X00008881.hg.1): 1.925
- logFC ANOS1 (transcript TC0X00009025.hg.1): 2.202
- logFC TMEM47 (transcript TC0X00009356.hg.1): 2.2
- logFC SYN1 (transcript TC0X00009576.hg.1): 1.838
- logFC SLC7A3 (transcript TC0X00009972.hg.1): 2.306
- logFC PCDH19 (transcript TC0X00010326.hg.1): 2.715
- logFC GPC3 (transcript TC0X00010851.hg.1): 3.405
- logFC SPANXC (transcript TC0X00010990.hg.1): 2.79
- logFC TSPAN7 (transcript TC0X00011279.hg.1): 3.632
- logFC SPANXD (transcript TC0X00011403.hg.1): 2.719
- logFC SPRY3 (transcript TC0Y00006855.hg.1): 1.925
- logFC AZIN2 (transcript TC0100007705.hg.1): 2.1884
- logFC SGIP1 (transcript TC0100008631.hg.1): 2.667
- logFC WDR63 (transcript TC0100008897.hg.1): 2.0565
- logFC PLPPR4 (transcript TC0100009181.hg.1): 3.131
- logFC RIIAD1 (transcript TC0100009969.hg.1): 1.761
- logFC RGS4 (transcript TC0100010393.hg.1): 2.615
- logFC RGL1 (transcript TC0100010874.hg.1): 1.6746
- logFC HMCN1 (transcript TC0100010921.hg.1): 2.357
- logFC PLA2G4A (transcript TC0100010939.hg.1): 2.146
- logFC NFASC (transcript TC0100011316.hg.1): 2.226
- logFC SYT14 (transcript TC0100011463.hg.1): 1.552
- logFC PADI2 (transcript TC0100013076.hg.1): 2.104
- logFC RAB3B (transcript TC0100014191.hg.1): 2.825
- logFC EXTL2 (transcript TC0100015079.hg.1): 1.8773
- logFC TXNIP (transcript TC0100015598.hg.1): 1.6929
- logFC TDRKH (transcript TC0100015803.hg.1): 1.45
- logFC CRABP2 (transcript TC0100016018.hg.1): 2.073
- logFC TNFSF18 (transcript TC0100016427.hg.1): 2.171
- logFC NMNAT2 (transcript TC0100016649.hg.1): 2.678
- logFC KCNT2 (transcript TC0100016822.hg.1): 1.691
- logFC SUSD4 (transcript TC0100017446.hg.1): 2.012
- logFC CHML (transcript TC0100017948.hg.1): 2.064
- logFC EFNA3 (transcript TC0100018303.hg.1): 2.427
- logFC CREG1 (transcript TC0100018528.hg.1): 1.58
- logFC ATP6V1C2 (transcript TC0200006703.hg.1): 1.305
- logFC DPYSL5 (transcript TC0200007047.hg.1): 2.839
- logFC CHAC2 (transcript TC0200007590.hg.1): 1.314
- logFC MERTK (transcript TC0200008894.hg.1): 2.244
- logFC B3GALT1 (transcript TC0200009889.hg.1): 2.683
- logFC FAM171B (transcript TC0200010219.hg.1): 2.2716
- logFC MAP2 (transcript TC0200010636.hg.1): 3.414
- logFC BCL11A (transcript TC0200012713.hg.1): 2.328
- logFC PAIP2B (transcript TC0200013021.hg.1): 1.841
- logFC KCNH7 (transcript TC0200014775.hg.1): 2.8124
- logFC SCN9A (transcript TC0200014819.hg.1): 2.356
- logFC LRP2 (transcript TC0200014851.hg.1): 2.542
- logFC FKBP7 (transcript TC0200015082.hg.1): 2.583
- logFC CALCRL (transcript TC0200015193.hg.1): 2.705
- logFC SLC40A1 (transcript TC0200015211.hg.1): 1.178
- logFC MSTN (transcript TC0200015221.hg.1): 1.434
- logFC STAT4 (transcript TC0200015246.hg.1): 1.771
- logFC EPHA4 (transcript TC0200015815.hg.1): 1.855
- logFC ITPR1 (transcript TC0300006477.hg.1): 1.259
- logFC GRAMD1C (transcript TC0300008371.hg.1): 3.533
- logFC STXBP5L (transcript TC0300008524.hg.1): 1.686
- logFC TMEM108 (transcript TC0300008853.hg.1): 1.4353
- logFC PLS1 (transcript TC0300009033.hg.1): 1.34
- logFC MLF1 (transcript TC0300009310.hg.1): 1.587
- logFC SERPINI1 (transcript TC0300009412.hg.1): 3.206
- logFC GPR160 (transcript TC0300009459.hg.1): 1.716
- logFC VGLL3 (transcript TC0300011706.hg.1): 1.982
- logFC IGSF11 (transcript TC0300012109.hg.1): 2.1969
- logFC SLITRK3 (transcript TC0300013022.hg.1): 1.701
- logFC LAMP3 (transcript TC0300013336.hg.1): 2.279
- logFC CLDN1 (transcript TC0300013520.hg.1): 1.599
- logFC CEP19 (transcript TC0300013719.hg.1): 1.62
- logFC IFT80 (transcript TC0300014074.hg.1): 1.3192
- logFC CCDC39 (transcript TC0300014078.hg.1): 2.854
- logFC WDR19 (transcript TC0400007280.hg.1): 1.361
- logFC GABRB1 (transcript TC0400007419.hg.1): 2.377
- logFC CYP2U1 (transcript TC0400008347.hg.1): 1.641
